Experimental data as given in PMC10609429, “Crystal Structure and Intermolecular Energy for Some Nandrolone Esters” (Molecules, 2023).
Values after ≈ are worked out from the molar mass of the structure shown. Values joined by “and” are separate entries in the source; they are usually repeats but may differ in a detail not shown here. Identical values can stand only once. Like-named read-outs stand apart in the source and are kept apart here.

Columns and labels:
[1] = Solubility evaluation of nandrolone esters in oil / benzyl benzoate / benzyl alcohol mixtures; type: physicochemical; details: 24 °C, oil or lipid, thermodynamic from solid
Protocol: From a pharmaceutical standpoint, the solubility of esterified agents (mg/mL) plays an important role in drug development and delivery. In this context, the solubilities were evaluated in multiple mixtures based on various organic oils: medium-chain triglyceride (MCT), apricot, grape seed oil (GSO) and cottonseed oil. Each solution contains a mixture of benzyl alcohol, benzyl benzoate and oil with a volumetric ratio of 2% benzyl alcohol, 20% benzyl benzoate and the rest of 78% oil.
Solubility evaluation was accomplished at a room temperature of 24 °C in successive additions of small quantities of raw materials (a few mg each step). The mixtures were stirred for up to several hours in order to achieve a completely dissolved solution. In the case that an undissolved excess of raw materials remained in the suspension, small quantities of mixtures were added until the solutions became perfectly homogenous and clear. Two measurements were performed in order to attain a good accuracy; their average was further discussed.

[2] = design: method as in PMID 28522428; details: two polymorphs, respectively; ambient temperature of 20 °C; mixtures of castor oil; cited from earlier work
[3] = design: method as in PMID 817322; details: oral vs subcutaneous; cited from earlier work
[4] = unesterified nandrolone; cited from earlier work
[5] = analogue esters of testosterone; cited from earlier work
[6] = average over the four oil mixtures (apricot, GSO, MCT, cottonseed), read-out: Solubility (average)
[7] = medium-chain triglyceride mixture: 2% benzyl alcohol, 20% benzyl benzoate, 78% oil (v/v), room temperature 24 °C, average of two measurements, read-out: Solubility, MCT
[8] = apricot oil / benzyl benzoate / benzyl alcohol mixture, apricot oil mixture: 2% benzyl alcohol, 20% benzyl benzoate, 78% oil (v/v), room temperature 24 °C, average of two measurements, read-out: Solubility, APRICOT
[9] = cottonseed oil / benzyl benzoate / benzyl alcohol mixture, cottonseed oil mixture: 2% benzyl alcohol, 20% benzyl benzoate, 78% oil (v/v), room temperature 24 °C, average of two measurements, read-out: Solubility, COTTON
[10] = grape seed oil / benzyl benzoate / benzyl alcohol mixture, grape seed oil mixture: 2% benzyl alcohol, 20% benzyl benzoate, 78% oil (v/v), room temperature 24 °C, average of two measurements, read-out: Solubility, GSO

| Compound | solubility [1, 6] [mg/mL] | solubility [1, 7] [mg/mL] | solubility [1, 8] [mg/mL] | solubility [1, 9] [mg/mL] | solubility [1, 10] [mg/mL] | further results |
| --- | --- | --- | --- | --- | --- | --- |
| C[C@]12CC[C@H]3[C@@H](CCC4=CC(=O)CC[C@@H]43)[C@@H]1CC[C@@H]2OC(=O)CCc1ccccc1 [NPhp, Nandrolone phenylpropionate] | ~138 (≈ 339 mM) | 148 (≈ 365 mM) | 127 (≈ 313 mM) | 140 (≈ 345 mM) | 137 (≈ 336 mM) | – |
| CCC(=O)OC1CCC2C3CCC4=CC(=O)CCC4C3CCC12C (centres unmarked) [NPro, Nandrolone propionate] | ~188 (≈ 569 mM) | 187 (≈ 566 mM) | 181 (≈ 548 mM) | 180 (≈ 544 mM) | 204 (≈ 619 mM) | – |
| CCCCCCCCCCC(=O)OC1CCC2C3CCC4=CC(=O)CCC4C3CCC12C (centres unmarked) [NUnd, Nandrolone undecanoate] | ~192 (≈ 433 mM) | 211 (≈ 478 mM) | 183 (≈ 413 mM) | 199 (≈ 450 mM) | 173 (≈ 391 mM) | – |
| CCCCCC(=O)O[C@]1(C(C)=O)CC[C@H]2[C@@H]3CCC4=CC(=O)CC[C@]4(C)[C@H]3CC[C@@]21C [hydroxyprogesterone caproate] | – | – | – | – | – | solubility [2]: 278 mg/mL and 301 mg/mL |
| C[C@]12CC[C@H]3[C@@H](CCC4=CC(=O)CC[C@@H]43)[C@@H]1CC[C@@H]2O [nandrolone, Estr-4-en-17β-ol-3-one] | – | – | – | – | – | Potency of the oral form compared with subcutaneous administration [3]: one-tenth; Half-life [4]: a few hours |
| C[C@]12CC[C@H]3[C@@H](CCC4=CC(=O)CC[C@@]43C)[C@@H]1CC[C@@H]2OC(=O)CCC1CCCC1 [testosterone cypionate] | – | – | – | – | – | solubility [5]: 255 mg/mL (≈ 618 mM) |
| CCCCCCCCCCC(=O)O[C@H]1CC[C@H]2[C@@H]3CCC4=CC(=O)CC[C@]4(C)[C@H]3CC[C@]12C [undecanoate ester of testosterone] | – | – | – | – | – | solubility [5]: 197 mg/mL (≈ 431 mM) |
